This note sets out measurements from patent US11142526B2, “Spirocycle compounds and methods of making and using same” (H. Lundbeck A/S, priority 2017, dated 2021).

A value given as a limit tells only on which side of the number the result lay.

Broadly, the IC50 is the midpoint of a concentration-inhibition curve. High values mean lower potency, low ones higher potency. The inhibition is the change of the read-out against control, counted positive when it falls.

For the experiment, the target named is MAGL (Mus musculus (Mouse), UniProt O35678). Put plainly: In vitro competitive activity-based protein profiling, mouse brain proteome. The experiment is classed as biochemical. The note with it: for IC50: mouse brain.
Chain of MAGL (O35678 whole entry): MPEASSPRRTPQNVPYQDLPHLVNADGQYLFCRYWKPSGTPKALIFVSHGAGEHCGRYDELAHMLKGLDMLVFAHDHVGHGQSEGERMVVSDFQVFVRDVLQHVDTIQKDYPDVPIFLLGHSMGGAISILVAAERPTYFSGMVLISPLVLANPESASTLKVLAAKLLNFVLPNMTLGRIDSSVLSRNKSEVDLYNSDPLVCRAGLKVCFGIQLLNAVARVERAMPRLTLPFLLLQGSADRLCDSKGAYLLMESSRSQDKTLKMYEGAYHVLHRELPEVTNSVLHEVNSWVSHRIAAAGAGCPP

`CC(C)n1cc(CN2CCCC23CCN(C(=O)OC(C(F)(F)F)C(F)(F)F)CC3)c(-c2cccc(N3CCCC3)c2)n1` [Example 8, 1,1,1,3,3,3-Hexafluoropropan-2-yl 1-((1-isopropyl-3-(3-(pyrrolidin-1-yl)phenyl)-1H-pyrazol-4-yl)methyl)-1,8-diazaspiro[4.5]decane-8-carboxylate] came in with an IC50 of 100 to 1000 nM. The “MAGL % Inhibition at 1 uM (Mouse)” value (1 uM, mouse) was “### (% inhibition is greater than or equal to 75%)”.

On to `O=C(OC(C(F)(F)F)C(F)(F)F)N1CCC2(CCCN2C(=O)c2cccnc2)CC1` [Example 13, 1,1,1,3,3,3-Hexafluoropropan-2-yl 1-nicotinoyl-1,8-diazaspiro[4.5]decane-8-carboxylate], for which, where the note is “1 uM, mouse”, the inhibition at 1 µM was over 75%.

Compound `Cc1ccc2[nH]c(C(=O)N3CCCC34CCN(C(=O)OC(C(F)(F)F)C(F)(F)F)CC4)cc2c1` [Example 14, 1,1,1,3,3,3-Hexafluoropropan-2-yl 1-(5-methyl-1H-indole-2-carbonyl)-1,8-diazaspiro[4.5]decane-8-carboxylate] displayed an IC50 of under 100 nM. The compound further came in with an inhibition at 1 µM (1 uM, mouse) of over 75%.

For the setting “1 uM, mouse”, `O=C(O)c1ccc2[nH]c(CN3CCCC34CCN(C(=O)OC(C(F)(F)F)C(F)(F)F)CC4)cc2c1` [Example 15, 2-((8-(((1,1,1,3,3,3-Hexafluoropropan-2-yl)oxy)carbonyl)-1,8-diazaspiro[4.5]decan-1-yl)methyl)-1H-indole-5-carboxylic acid] registered an inhibition at 1 µM of 25 to 75%.

Consider `O=C(OC(C(F)(F)F)C(F)(F)F)N1CCC2(CCCN2Cc2cc3c(Cl)cccc3s2)CC1` [Example 44, 1,1,1,3,3,3-Hexafluoropropan-2-yl 1-((4-chlorobenzo[b]thiophen-2-yl)methyl)-1,8-diazaspiro[4.5] decane-8-carboxylate], for which the IC50 was 100 to 1000 nM. The inhibition at 1 µM (1 uM, mouse) was over 75%.

In turn, `O=C(OC(C(F)(F)F)C(F)(F)F)N1CCC2(CCCN2Cc2c[nH]c3cccc(Cl)c23)CC1` [Example 45, 1,1,1,3,3,3-Hexafluoropropan-2-yl 1-((4-chloro-1H-indol-3-yl)methyl)-1,8-diazaspiro[4.5] decane-8-carboxylate] showed an IC50 of 100 to 1000 nM.

`O=C(OC(C(F)(F)F)C(F)(F)F)N1CCC2(CCCN2Cc2cc(-c3ccc(Cl)cc3)on2)CC1` [Example 47, 1,1,1,3,3,3-Hexafluoropropan-2-yl 1-((5-(4-chlorophenyl)isoxazol-3-yl)methyl)-1,8-diazaspiro[4.5] decane-8-carboxylate] yielded an IC50 of under 100 nM. Also, the inhibition at 1 µM (1 uM, mouse) is over 75%.

Consider `Cc1c(CN2CCCC23CCN(C(=O)OC(C(F)(F)F)C(F)(F)F)CC3)[nH]c2ccc(Cl)cc12` [Example 48, 1,1,1,3,3,3-Hexafluoropropan-2-yl 1-((5-chloro-3-methyl-1H-indol-2-yl)methyl)-1,8-diazaspiro[4.5] decane-8-carboxylate], for which the inhibition at 1 µM (1 uM, mouse) is over 75%.

The compound `Cc1c(CN(C)C2(C)CCN(C(=O)OC(C(F)(F)F)C(F)(F)F)CC2)sc2ccccc12` [Example 50, 1,1,1,3,3,3-Hexafluoropropan-2-yl 4-methyl-4-(methyl((3-methylbenzo[b]thiophen-2-yl)methyl)amino) piperidine-1-carboxylate] had an IC50 of 100 to 1000 nM. Further, under “1 uM, mouse”, the inhibition at 1 µM was over 75%.

In the case of `COc1cccc2cc(CN3CCCC34CCN(C(=O)OC(C(F)(F)F)C(F)(F)F)CC4)[nH]c12` [Example 53, 1,1,1,3,3,3-Hexafluoropropan-2-yl 1-((7-methoxy-1H-indol-2-yl)methyl)-1,8-diazaspiro[4.5] decane-8-carboxylate], the inhibition at 1 µM (1 uM, mouse) was over 75%.

Regarding `O=C(OC(C(F)(F)F)C(F)(F)F)N1CCC2(CCCN2Cc2ccc3cc(Cl)ccc3n2)CC1` [Example 55, 1,1,1,3,3.3-Hexafluoropropan-2-yl 1-((6-chloroquinolin-2-yl)methyl)-1,8-diazaspiro[4.5] decane-8-carboxylate], the IC50 was under 100 nM. Under “1 uM, mouse”, this compound displayed an inhibition at 1 µM of over 75%.

As to `Cc1ccc2cc(C(=O)N3CCCC34CCN(C(=O)OC(C(F)(F)F)C(F)(F)F)CC4)sc2c1` [Example 59, 1,1,1,3,3,3-Hexafluoropropan-2-yl 1-(6-methylbenzo[b]thiophene-2-carbonyl)-1,8-diazaspiro[4.5] decane-8-carboxylate], the inhibition at 1 µM (1 uM, mouse) was over 75%.

Regarding `O=C(OC(C(F)(F)F)C(F)(F)F)N1CCC2(CCN(Cc3cccnc3)C2)CC1` [Example 64, 1,1,1,3,3,3-Hexafluoropropan-2-yl 2-(pyridin-3-ylmethyl)-2,8-diazaspiro[4.5] decane-8-carboxylate], the concentration for half-maximal inhibition (IC50) was 100 to 1000 nM. Moreover, under “1 uM, mouse”, the inhibition at 1 µM is over 75%.

Compound `O=C(OC(C(F)(F)F)C(F)(F)F)N1CCC2(CCN(Cc3ncccn3)C2)CC1` [Example 65, 1,1,1,3,3,3-Hexafluoropropan-2-yl 2-(pyrimidin-2-ylmethyl)-2,8-diazaspiro[4.5] decane-8-carboxylate] came in with an inhibition at 1 µM (1 uM, mouse) of over 75%.

Turning to `O=C(OC(C(F)(F)F)C(F)(F)F)N1CCC2(CCN(Cc3nccs3)C2)CC1` [Example 66, 1,1,1,3,3,3-Hexafluoropropan-2-yl 2-(thiazol-2-ylmethyl)-2,8-diazaspiro [4.5]decane-8-carboxylate], the IC50 is under 100 nM. Where the note is “1 uM, mouse”, this compound had an inhibition at 1 µM of over 75%.

Consider `O=C(OC(C(F)(F)F)C(F)(F)F)N1CCC2(CCN(Cc3cncnc3)C2)CC1` [Example 67, 1,1,1,3,3,3-Hexafluoropropan-2-yl 2-(pyrimidin-5-ylmethyl)-2,8-diazaspiro[4.5] decane-8-carboxylate], for which the IC50 lay within 100 to 1000 nM. The inhibition at 1 µM (1 uM, mouse) is over 75%.

`Cn1cc(C(=O)N2CCCC23CCN(C(=O)OC(C(F)(F)F)C(F)(F)F)CC3)cn1` [Example 70, 1,1,1,3,3,3-Hexafluoropropan-2-yl 1-(1-methyl-1H-pyrazole-4-carbonyl)-1,8-diazaspiro[4.5] decane-8-carboxylate] gave an IC50 of 100 to 1000 nM. Also, the inhibition at 1 µM (1 uM, mouse) was over 75%.

In turn, `O=C(OC(C(F)(F)F)C(F)(F)F)N1CCC2(CCCN2C(=O)c2cnn(-c3ccccc3)c2)CC1` [Example 72, 1,1,1,3,3,3-Hexafluoropropan-2-yl 1-(1-phenyl-1H-pyrazole-4-carbonyl)-1,8-diazaspiro[4.5] decane-8-carboxylate] returned an IC50 of under 100 nM. Besides, the inhibition at 1 µM (1 uM, mouse) is over 75%.

`O=C(OC(C(F)(F)F)C(F)(F)F)N1CCC2(CCN(Cc3ccccn3)C2)CC1` [Example 73, 1,1,1,3,3,3-Hexafluoropropan-2-yl 2-(pyridin-2-ylmethyl)-2,8-diazaspiro [4.5]decane-8-carboxylate] returned a half-maximal inhibitory concentration (IC50) of 100 to 1000 nM. This compound registered an inhibition at 1 µM (1 uM, mouse) of over 75%.

`O=C(OC(C(F)(F)F)C(F)(F)F)N1CCC2(CCN(Cc3ccncn3)C2)CC1` [Example 74, 1,1,1,3,3,3-Hexafluoropropan-2-yl 2-(pyrimidin-4-ylmethyl)-2,8-diazaspiro[4.5] decane-8-carboxylate]: the IC50 is under 100 nM. The inhibition at 1 µM (1 uM, mouse) was over 75%.

As for `O=C(OC(C(F)(F)F)C(F)(F)F)N1CCC2(CCCN2C(=O)c2cc3ccccc3[nH]2)CC1` [Example 76, 1,1,1,3,3,3-Hexafluoropropan-2-yl 1-(1H-indole-2-carbonyl)-1,8-diazaspiro[4.5] decane-8-carboxylate], the IC50 was under 100 nM. The compound further registered an inhibition at 1 µM (1 uM, mouse) of over 75%.
